Assays:
Conditions in all cases: Compound concentration 1000.0 nM
[1] = target: Calcium/calmodulin-dependent protein kinase type 1B (Homo sapiens) (UniProt Q6P2M8)
[2] = target: T1, Serine/threonine-protein kinase STK11 (Homo sapiens) (UniProt Q15831)
T1 sequence (whole entry): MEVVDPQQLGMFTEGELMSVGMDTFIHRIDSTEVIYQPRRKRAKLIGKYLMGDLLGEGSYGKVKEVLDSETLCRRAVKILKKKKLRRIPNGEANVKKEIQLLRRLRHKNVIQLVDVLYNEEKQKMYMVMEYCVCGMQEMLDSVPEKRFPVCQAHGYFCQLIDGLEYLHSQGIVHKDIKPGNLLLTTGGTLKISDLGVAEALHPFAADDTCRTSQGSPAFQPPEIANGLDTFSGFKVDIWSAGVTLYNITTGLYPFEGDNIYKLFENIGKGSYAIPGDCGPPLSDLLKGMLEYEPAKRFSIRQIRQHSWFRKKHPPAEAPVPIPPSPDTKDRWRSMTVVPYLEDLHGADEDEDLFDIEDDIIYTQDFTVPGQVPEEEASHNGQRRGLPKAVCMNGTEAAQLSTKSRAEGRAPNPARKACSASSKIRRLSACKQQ

[3] = target: T2, Serine/threonine-protein kinase TAO2 (Homo sapiens) (UniProt Q9UL54)
T2 sequence (whole entry): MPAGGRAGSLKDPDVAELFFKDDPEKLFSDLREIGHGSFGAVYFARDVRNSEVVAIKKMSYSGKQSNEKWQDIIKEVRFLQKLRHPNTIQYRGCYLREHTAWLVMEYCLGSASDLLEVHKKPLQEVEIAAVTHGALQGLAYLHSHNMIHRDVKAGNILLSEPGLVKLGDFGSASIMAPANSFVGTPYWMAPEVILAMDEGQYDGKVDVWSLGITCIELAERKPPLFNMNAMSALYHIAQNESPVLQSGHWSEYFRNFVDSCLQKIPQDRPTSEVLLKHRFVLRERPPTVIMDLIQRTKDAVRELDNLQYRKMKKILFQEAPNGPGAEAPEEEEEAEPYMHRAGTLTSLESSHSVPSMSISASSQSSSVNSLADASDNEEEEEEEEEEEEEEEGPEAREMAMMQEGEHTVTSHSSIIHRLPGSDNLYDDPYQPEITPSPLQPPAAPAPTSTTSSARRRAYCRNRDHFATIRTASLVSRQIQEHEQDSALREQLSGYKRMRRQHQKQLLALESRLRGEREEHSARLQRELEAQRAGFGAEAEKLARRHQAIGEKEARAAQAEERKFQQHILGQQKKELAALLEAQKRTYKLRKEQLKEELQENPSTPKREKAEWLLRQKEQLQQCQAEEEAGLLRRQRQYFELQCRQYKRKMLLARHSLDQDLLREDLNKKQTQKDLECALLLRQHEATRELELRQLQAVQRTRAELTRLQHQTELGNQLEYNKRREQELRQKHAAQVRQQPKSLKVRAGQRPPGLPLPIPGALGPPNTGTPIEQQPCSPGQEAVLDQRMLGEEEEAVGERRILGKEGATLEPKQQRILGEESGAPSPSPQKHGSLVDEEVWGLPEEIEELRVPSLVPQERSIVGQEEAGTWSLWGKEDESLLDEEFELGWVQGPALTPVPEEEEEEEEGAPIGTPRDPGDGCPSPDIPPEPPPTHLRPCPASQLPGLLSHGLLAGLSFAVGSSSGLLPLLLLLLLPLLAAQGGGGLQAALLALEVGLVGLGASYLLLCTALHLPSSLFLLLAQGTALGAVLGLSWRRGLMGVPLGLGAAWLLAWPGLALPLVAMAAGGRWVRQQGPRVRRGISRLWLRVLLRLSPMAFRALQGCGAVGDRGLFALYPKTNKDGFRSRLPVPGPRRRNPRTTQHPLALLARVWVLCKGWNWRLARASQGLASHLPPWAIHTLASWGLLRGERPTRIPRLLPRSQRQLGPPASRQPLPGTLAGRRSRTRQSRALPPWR

[4] = target: T3, Serine/threonine-protein kinase haspin (Homo sapiens) (UniProt Q8TF76)
T3 sequence (whole entry): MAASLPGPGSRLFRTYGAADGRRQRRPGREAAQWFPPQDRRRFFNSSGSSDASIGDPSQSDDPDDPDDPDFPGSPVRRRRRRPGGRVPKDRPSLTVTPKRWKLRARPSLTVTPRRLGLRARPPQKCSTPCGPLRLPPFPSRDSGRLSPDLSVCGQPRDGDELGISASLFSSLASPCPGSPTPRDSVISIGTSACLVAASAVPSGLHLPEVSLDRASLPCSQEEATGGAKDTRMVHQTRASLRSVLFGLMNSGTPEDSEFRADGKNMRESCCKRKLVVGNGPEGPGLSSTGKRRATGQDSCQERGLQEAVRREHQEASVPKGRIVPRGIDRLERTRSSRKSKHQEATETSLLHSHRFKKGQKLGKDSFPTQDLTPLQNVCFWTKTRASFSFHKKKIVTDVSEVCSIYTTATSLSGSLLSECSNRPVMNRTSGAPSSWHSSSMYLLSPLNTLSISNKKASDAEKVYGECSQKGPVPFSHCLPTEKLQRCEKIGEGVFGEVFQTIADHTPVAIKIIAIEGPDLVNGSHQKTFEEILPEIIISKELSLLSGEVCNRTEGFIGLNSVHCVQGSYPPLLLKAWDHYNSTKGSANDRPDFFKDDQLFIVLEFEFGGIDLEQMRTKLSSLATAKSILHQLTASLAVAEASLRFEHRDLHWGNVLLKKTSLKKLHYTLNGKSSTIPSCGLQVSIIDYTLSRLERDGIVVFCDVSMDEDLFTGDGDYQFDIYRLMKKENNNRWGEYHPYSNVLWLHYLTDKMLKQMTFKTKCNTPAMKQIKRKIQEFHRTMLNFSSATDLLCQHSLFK

[5] = target: T4, Tyrosine-protein kinase TXK (Homo sapiens) (UniProt P42681)
T4 sequence (whole entry): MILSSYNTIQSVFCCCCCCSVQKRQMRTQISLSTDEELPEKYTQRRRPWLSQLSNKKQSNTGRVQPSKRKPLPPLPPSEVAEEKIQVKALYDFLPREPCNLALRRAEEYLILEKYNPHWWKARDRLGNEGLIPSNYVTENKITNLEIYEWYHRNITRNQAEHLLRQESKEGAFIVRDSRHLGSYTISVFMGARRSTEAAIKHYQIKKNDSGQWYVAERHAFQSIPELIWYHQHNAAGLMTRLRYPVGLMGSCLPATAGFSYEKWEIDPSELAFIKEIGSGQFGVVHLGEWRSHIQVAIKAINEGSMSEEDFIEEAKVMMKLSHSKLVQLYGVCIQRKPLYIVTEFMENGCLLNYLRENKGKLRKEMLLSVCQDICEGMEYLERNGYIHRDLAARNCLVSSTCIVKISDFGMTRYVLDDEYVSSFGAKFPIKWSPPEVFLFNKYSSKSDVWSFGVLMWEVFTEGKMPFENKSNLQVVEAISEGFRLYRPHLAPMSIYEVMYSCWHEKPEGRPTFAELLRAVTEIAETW

Measured: residual activity

Sequence of Calcium/calmodulin-dependent protein kinase type 1B (Homo sapiens) (Q6P2M8 whole entry): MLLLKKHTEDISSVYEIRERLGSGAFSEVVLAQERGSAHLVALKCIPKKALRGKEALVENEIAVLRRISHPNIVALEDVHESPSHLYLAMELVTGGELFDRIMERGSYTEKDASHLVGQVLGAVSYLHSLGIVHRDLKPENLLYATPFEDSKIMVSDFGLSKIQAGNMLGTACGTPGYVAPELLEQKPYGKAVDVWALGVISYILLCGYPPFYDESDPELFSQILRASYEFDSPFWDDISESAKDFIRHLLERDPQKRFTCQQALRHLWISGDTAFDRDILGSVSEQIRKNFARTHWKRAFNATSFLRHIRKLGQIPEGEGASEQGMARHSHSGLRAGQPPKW

Cc1nc(C2CCN(C(=O)c3ccc(OC(F)(F)F)cc3N)CC2)c2ncc(N3CCN(C)CC3)cc2n1 [BAY-693]
inactive: [1] 100% | [2] 100% | [3] 100% | [4] 100% | [5] 100%

CN1CCN(c2cnc3c(C4CCN(C(=O)c5ccc(OC(F)(F)F)cc5N)CC4)ncnc3c2)CC1 [BAY-885]
inactive: [1] 100% | [2] 100% | [3] 100% | [4] 100% | [5] 88%
